Assay [1] concerns the target recombinant human 11β-HSD type 1 enzyme (Homo sapiens, UniProt P28845). Nature of the assay: 11β-HSD Type 1 Enzyme Assay (NADPH fluorescence). It is filed as biochemical. The following applies: three hour incubation at room temperature, read-out: Human 11-βHSD1 IC50. As for the experimental part: 11β-HSD Type 1 Enzyme Assay
Human 11β-HSD type 1 activity is measured by assaying NADPH production by fluorescence assay. Solid compounds are dissolved in DMSO to a concentration of 10 mM. Twenty microliters of each are then transferred to a column of a 96-well polypropylene Nunc plate where they are further diluted 50-fold followed by subsequent two-fold titration, ten times across the plate with additional DMSO using a Tecan Genesis 200 automated system. Plates are then transferred to a Tecan Freedom 200 system with an attached Tecan Temo 96-well head and an Ultra 384 plate reader. Reagents are supplied in 96-well polypropylene Nunc plates and are dispensed individually into black 96-well Molecular Devices High Efficiency assay plates (40 μL/well capacity) in the following fashion: 9 μL/well of substrate (2.22 mM NADP, 55.5 μM Cortisol, 10 mM Tris, 0.25% Prionex, 0.1% Triton X100), 3 μL/well of water to compound wells or 3 μL to control and standard wells, 6 μL/well recombinant human 11β-HSD type 1 enzyme, 2 μL/well of compound dilutions. […] Final DMSO concentration is 0.5% for all compounds, controls and standards. Plates are then placed on a shaker by the robotic arm of the Tecan for 15 seconds before being covered and stacked for a three hour incubation period at room temperature. Upon completion of this incubation, the Tecan robotic arm removes each plate individually from the stacker and places them in position for addition of 5 μL/well of a 250 μM carbenoxolone solution to stop the enzymatic reaction. Plates are then shaken once more for 15 seconds then placed into an Ultra 384 microplate reader (355EX/460EM) for detection of NADPH fluorescence.

The target of assay [2] is T1, 11β-HSD1 in primary human aortic smooth muscle cells (AoSMC) (Homo sapiens, UniProt P28845).
T1 construct: containing 12 ng/mL hTNFα to induce expression of 11β-HSD1; endogenous in cells; host or cells: primary human aortic smooth muscle cells (AoSMC), induced with hTNFα
As to the kind of experiment: Human Aortic Smooth Muscle Cell Assay (cortisone to cortisol conversion). As to conditions: hTNFα-induced 11β-HSD1, cortisol by time resolved immunoassay. It is filed as cell-based. As for the experimental part:
Human Aortic Smooth Muscle Cell Assay
Primary human aortic smooth muscle cells (AoSMC) are cultured in 5% FBS growth medium to a passage number of 6, then pelleted by centrifugation and resuspended at a density of 9×10^4 cells/mL in 0.5% FBS assay medium containing 12 ng/mL hTNFα to induce expression of 11β-HSD1. Cells are seeded into 96-well tissue culture assay plates at 100 μL/well (9×10^3 cells/well) and incubated for 48 hours at 37° C., 5% CO2. Following induction, cells are incubated for 4 hours at 37° C., 5% CO2 in assay medium containing test compounds then treated with 10 μL/well of 10 μM cortisone solubilized in assay medium, and incubated for 16 hours at 37° C., 5% CO2. Medium from each well is transferred to a plate for subsequent analysis of cortisol using a competitive fluorescence resonance time resolved immunoassay. In solution, an allophycocyanin (APC)-cortisol conjugate and free cortisol analyte compete for binding to a mouse anti-cortisol antibody/Europium (Eu)-anti mouse IgG complex. Higher levels of free cortisol result in diminishing energy transfer from the Europium-IgG to the APC-cortisol complex resulting in less APC fluorescence. Fluorescent intensities for Europium and APC are measured using a LJL Analyst AD. Europium and APC excitation is measured using 360 nm excitation and 615 nm and 650 nm emission filters respectively. Time resolved parameters for Europuium were 1000 μs integration time with a 200 μs delay. APC parameters are set at 150 μs integration time with a 50 μs delay. Fluorescent intensities measured for APC are modified by dividing by the Eu fluorescence (APC/Eu). This ratio is then used to determine the unknown cortisol concentration by interpolation using a cortisol standard curve fitted with a 4-parameter logistic equation. These concentrations are then used to determine compound activity by plotting concentration versus % inhibition, fitting with a 4-parameter curve and reporting the IC50.

The next assay concerns cortisone conversion. Nature of the assay: Acute In Vivo Cortisone Conversion Assay. Also on record: species or system male C57BL/6 mice. The following applies: mice, oral dose of 10 mg/kg, cortisone challenge 30 mg/kg s.c. after 16 hours, serum cortisol by LC-MS/MS. As for the experimental part: Acute In Vivo Cortisone Conversion Assay
In general, compounds are dosed orally into mice, the mice are challenged with a subcutaneous injection of cortisone at a set timepoint after compound injection, and the blood of each animal is collected some time later. Separated serum is then isolated and analyzed for levels of cortisone and cortisol by LC-MS/MS, followed by calculation of mean cortisol and percent inhibition of each dosing group. Specifically, male C57BL/6 mice are obtained from Harlan Sprague Dawley at average weight of 25 grams. Exact weights are taken upon arrival and the mice randomized into groups of similar weights. Compounds are prepared in 1% w-w HEC, 0.25% w-w polysorbate 80, 0.05% w-w Dow Corning antifoam #1510-US at various doses based on assumed average weight of 25 grams. Compounds are dosed orally, 200 μl per animal, followed by a subcutaneous dose, 200 μl per animal, of 30 mg/kg cortisone at 1 to 24 hours post compound dose. At 10 minutes post cortisone challenge, each animal is euthanized for 1 minute in a CO2 chamber, followed by blood collection via cardiac puncture into serum separator tubes. Once fully clotted, tubes are spun at 2500×g, 4° C. for 15 minutes, the serum transferred to wells of 96-well plates (Corning Inc, Costar #4410, cluster tubes, 1.2 ml, polypropylene), and the plates are frozen at −20° C. until analysis by LC-MS/MS. For analysis, serum samples are thawed and the proteins are precipitated by the addition of acetonitrile containing d-4-cortisol internal standard. Samples are vortex mixed and centrifuged. The supernatant is removed and dried under a stream of warm nitrogen. Extracts are reconstituted in methanol/water (1:1) and injected onto the LC-MS/MS system. The levels of cortisone and cortisol are assayed by selective reaction monitoring mode following positive ACPI ionization on a triple quadrupole mass spectrophotometer.

Each structure is given as a SMILES string.

Sequence of recombinant human 11β-HSD type 1 enzyme (P28845 whole entry): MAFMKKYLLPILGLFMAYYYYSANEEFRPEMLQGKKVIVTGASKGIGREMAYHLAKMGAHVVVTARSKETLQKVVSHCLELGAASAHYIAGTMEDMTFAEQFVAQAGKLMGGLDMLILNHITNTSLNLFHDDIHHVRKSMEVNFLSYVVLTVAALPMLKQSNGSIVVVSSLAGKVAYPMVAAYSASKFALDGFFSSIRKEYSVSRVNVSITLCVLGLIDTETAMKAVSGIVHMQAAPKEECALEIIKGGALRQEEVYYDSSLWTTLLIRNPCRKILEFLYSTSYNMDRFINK
T1 sequence (P28845 whole entry): as above

What is called IC50 is the concentration that gives 50% inhibition. As to `O=C1C(Cc2c(Cl)cc(-c3ccc(Cl)cc3)cc2Cl)CCN1C1CCc2nc[nH]c2C1` (stereo not shown) [Example 1, 1-(4,5,6,7-Tetrahydro-3H-benzoimidazol-5-yl)-3-(3,5,4′-trichloro-biphenyl-4-ylmethyl)-pyrrolidin-2-one], the IC50 in assay [1] worked out at 325 nM; in assay [2], 6.8 nM.
Turning to `O=C1C(Cc2c(Cl)cc(-c3ccc(F)cc3)cc2Cl)CCN1C1CCc2[nH]cnc2C1` (stereo not shown) [Example 15, 3-(3,5-Dichloro-4′-fluoro-biphenyl-4-ylmethyl)-1-(4,5,6,7-tetrahydro-1H-benzoimidazol-5-yl)-pyrrolidin-2-one], the IC50 in assay [1] is 214 nM; in assay [2] it was 3.2 nM.
Take `O=C1[C@H](Cc2c(Cl)cc(-c3ccc(N4CCOCC4)cc3)cc2Cl)CCN1C1CCc2[nH]cnc2C1` (stereo partly drawn) [Example 29, (R)-3-(3,5-Dichloro-4′-morpholin-4-yl-biphenyl-4-ylmethyl)-1-(4,5,6,7-tetrahydro-1H-benzoimidazol-5-yl)-pyrrolidin-2-one]: the IC50 was 75.4 nM in assay [1] and 0.6 nM in assay [2]. Also, the “% Inhibition after 16 hours (dose of 10 (mg/kg))” value with cortisone conversion is recorded as 52%.
The like results for `O=C1[C@H](Cc2c(Cl)cc(-c3ccc(N4CCOCC4)nc3F)cc2Cl)CCN1C1CCc2[nH]cnc2C1` (stereo partly drawn) [Example 32, (R)-3-[2,6-Dichloro-4-(2-fluoro-6-morpholin-4-yl-pyridin-3-yl)-benzyl]-1-(4,5,6,7-tetrahydro-1H-benzoimidazol-5-yl)-pyrrolidin-2-one] were, in that order, 175 nM, 3 nM and 59.2%.
For `O=C(c1ccc(-c2cc(Cl)c(C[C@@H]3CCN(C4CCc5nc[nH]c5C4)C3=O)c(Cl)c2)cc1)N1CCC(C(F)(F)F)CC1` (stereo partly shown) [Example 42, 3-[R]-[3,5-Dichloro-4′-(4-trifluoromethyl-piperidine-1-carbonyl)-biphenyl-4-ylmethyl]-1-(4,5,6,7-tetrahydro-3H-benzoimidazol-5-yl)-pyrrolidin-2-one] the same measures were 143 nM, 4.5 nM and 98.4%.

Source of the values: patent US7820659B2, “Cyclohexylimidiazole lactam derivatives as inhibitors of 11-β-hydroxysteroid dehydrogenase 1” (Eli Lilly and Company, priority 2006, dated 2010).
